# Test results: patent US8470785B2, “Method for treating ocular cancer” (St. Jude Children's Research Hospital, priority 2006, dated 2013)
# Like-named read-outs stand apart in the source and are kept apart here. Ends that are not written are not given here.
# How the values were obtained:
# HDM2 = HDM2 (Homo sapiens, UniProt Q00987); conditions: literature; cited from earlier work
# retinoblastoma cells = conditions: for p53 response: topotecan at LC50 for 1 hour, nutlin-3 treatment
# Mdm2^Lox/Lox MEFs = assay: Clonal analysis in Mdm2-deficient MEFs (Table 8)
# MDM2, p53 and p21 levels = assay: Immunoblot analysis of p53 pathway induction; conditions: 4 μM nutlin-3; Weril, Y79, primary retinoblasts; all cells except 911 cells
# [1] = tested on: p53^LSL MEFs null for Mdm2 and/or MdmX; assay: MTT growth/viability assay in p53^LSL MEFs
# [2] = tested on: SJRBL8 retinoblastoma cell line; assay: Retinoblastoma cell viability, p53-deficient SJRBL8 cells; conditions: 10 μM to 1 nM, 72 hours
# Weril and Y79 cells = conditions: lentivirus control-infected cells
# Y79 cells = assay: Retinoblastoma cell viability, Y79 cells; format: cell-based, human; conditions: 72 hours, total racemic drug; read-out: LC50 (the source's name)
# Source text: These studies were extended to retinoblastoma cells. […] MDM2, p53 and p21 levels were induced in all cells except for the 911 cells in which p53 was inactivated by the large E1B protein.
# [3] = cited from earlier work
# [4] = target: T1, MDMX (amino acid residues 1-185) (Homo sapiens, UniProt O15151); assay: Fluorescence polarization p53 peptide binding/competition assay, MDMX
# T1 sequence (O15151 1-185): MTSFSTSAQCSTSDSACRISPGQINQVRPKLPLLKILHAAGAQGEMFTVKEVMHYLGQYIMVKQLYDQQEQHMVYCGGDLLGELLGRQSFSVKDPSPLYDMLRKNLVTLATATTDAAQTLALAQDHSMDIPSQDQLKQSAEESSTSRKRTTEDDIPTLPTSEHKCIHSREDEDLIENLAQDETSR
# [5] = target: MDM2 (amino acid residues 1-188) (Homo sapiens, UniProt Q00987); assay: Fluorescence polarization p53 peptide binding/competition assay, MDM2
# Sequence of MDM2 (amino acid residues 1-188) (Q00987 1-188): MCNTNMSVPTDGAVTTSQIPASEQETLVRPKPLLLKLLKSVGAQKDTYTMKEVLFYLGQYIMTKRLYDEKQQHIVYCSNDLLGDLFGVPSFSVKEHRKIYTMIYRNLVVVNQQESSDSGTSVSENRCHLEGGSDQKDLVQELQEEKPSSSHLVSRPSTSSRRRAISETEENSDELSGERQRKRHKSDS
# Sequence of HDM2 (Q00987 whole entry): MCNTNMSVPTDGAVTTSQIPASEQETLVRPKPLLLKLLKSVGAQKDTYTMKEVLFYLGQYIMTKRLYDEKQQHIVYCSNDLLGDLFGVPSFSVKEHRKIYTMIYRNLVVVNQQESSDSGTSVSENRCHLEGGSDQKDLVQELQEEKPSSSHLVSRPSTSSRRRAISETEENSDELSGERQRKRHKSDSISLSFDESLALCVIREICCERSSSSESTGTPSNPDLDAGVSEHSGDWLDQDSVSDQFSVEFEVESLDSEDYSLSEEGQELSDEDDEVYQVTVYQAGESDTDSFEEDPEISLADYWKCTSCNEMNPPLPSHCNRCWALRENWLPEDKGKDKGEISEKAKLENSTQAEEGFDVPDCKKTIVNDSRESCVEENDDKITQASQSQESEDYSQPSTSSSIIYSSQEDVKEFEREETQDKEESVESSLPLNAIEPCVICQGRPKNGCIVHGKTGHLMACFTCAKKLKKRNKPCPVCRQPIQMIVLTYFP
molecule,measurement,setting,value
FMDYWEGL [SEQ ID NO:4],affinity / inhibition of p53/HDM2 complex,HDM2,micromolar affinity
chlorofusin,affinity / inhibition of p53/HDM2 complex,HDM2,micromolar inhibitor
COc1ccc(C2=N[C@@H](c3ccc(Cl)cc3)[C@@H](c3ccc(Cl)cc3)N2C(=O)N2CCNC(=O)C2)c(OC(C)C)c1 [nutlin-3],effect of nutlin-3 alone,retinoblastoma cells; 10 nM,ineffective alone
same,p53 response,retinoblastoma cells,induced a p53 response
same,response to nutlin-3 with MDMX cDNA,"Weril cells; Weril cells, MDMX cDNA",more resistant
same,response to nutlin-3 with MDMX siRNA,"Weril cells; Weril cells, MDMX siRNA",sensitized
same,CC50,"Weril cells; read-out: LC50 (50% lethal concentration), 72 hours, total racemic drug",0.7 µM
same,CC50,"Weril cells; read-out: LC50, Weril cells transfected with control siRNA",0.6 µM
same,CC50,"Weril cells; read-out: LC50, Weril cells transfected with p53 siRNA",10 µM
same,MdmX rescue of the loss of Mdm2 in MEFs,Mdm2^Lox/Lox MEFs; 1.25 μM or 5 μM racemic nutlin-3,blocked
same,number of cells per clone,"Mdm2^Lox/Lox MEFs; GFP virus, 1.25 μM racemic nutlin-3, Day 2",1.0 ± 0^
same,number of cells per clone,"Mdm2^Lox/Lox MEFs; GFP virus, 1.25 μM racemic nutlin-3, Day 3",1.5 ± 0.4
same,number of cells per clone,"Mdm2^Lox/Lox MEFs; GFP virus, 1.25 μM racemic nutlin-3, Day 4",2.1 ± 0.7
same,number of cells per clone,"Mdm2^Lox/Lox MEFs; GFP virus, 5.0 μM racemic nutlin-3, Day 2",1.1 ± 0.2
same,number of cells per clone,"Mdm2^Lox/Lox MEFs; GFP virus, 5.0 μM racemic nutlin-3, Day 3",1.5 ± 0.4
same,number of cells per clone,"Mdm2^Lox/Lox MEFs; Mdm2-GFP virus, 1.25 μM racemic nutlin-3, Day 2",3.1 ± 1.5
same,number of cells per clone,"Mdm2^Lox/Lox MEFs; Mdm2-GFP virus, 1.25 μM racemic nutlin-3, Day 3",6.6 ± 5.2
same,number of cells per clone,"Mdm2^Lox/Lox MEFs; Mdm2-GFP virus, 1.25 μM racemic nutlin-3, Day 4",10.0 ± 7.4
same,number of cells per clone,"Mdm2^Lox/Lox MEFs; Mdm2-GFP virus, 1.25 μM racemic nutlin-3, Day 5",12.9 ± 8.1
same,number of cells per clone,"Mdm2^Lox/Lox MEFs; Mdm2-GFP virus, 1.25 μM racemic nutlin-3, Day 6",14.5 ± 9.3
same,number of cells per clone,"Mdm2^Lox/Lox MEFs; Mdm2-GFP virus, 5.0 μM racemic nutlin-3, Day 2",3.0 ± 2.2
same,number of cells per clone,"Mdm2^Lox/Lox MEFs; Mdm2-GFP virus, 5.0 μM racemic nutlin-3, Day 3",3.3 ± 1.4
same,number of cells per clone,"Mdm2^Lox/Lox MEFs; Mdm2-GFP virus, 5.0 μM racemic nutlin-3, Day 4",3.9 ± 2.1
same,number of cells per clone,"Mdm2^Lox/Lox MEFs; Mdm2-GFP virus, 5.0 μM racemic nutlin-3, Day 5",3.1 ± 1.7
same,number of cells per clone,"Mdm2^Lox/Lox MEFs; Mdm2-GFP virus, 5.0 μM racemic nutlin-3, Day 6",2.8 ± 2.0
same,number of cells per clone,"Mdm2^Lox/Lox MEFs; MdmX-GFP virus, 1.25 μM racemic nutlin-3, Day 2",1.1 ± 0.2
same,number of cells per clone,"Mdm2^Lox/Lox MEFs; MdmX-GFP virus, 1.25 μM racemic nutlin-3, Day 3",1.9 ± 0.6
same,number of cells per clone,"Mdm2^Lox/Lox MEFs; MdmX-GFP virus, 1.25 μM racemic nutlin-3, Day 4",2.8 ± 1.7
same,number of cells per clone,"Mdm2^Lox/Lox MEFs; MdmX-GFP virus, 1.25 μM racemic nutlin-3, Day 5",3.4 ± 2.2
same,number of cells per clone,"Mdm2^Lox/Lox MEFs; MdmX-GFP virus, 1.25 μM racemic nutlin-3, Day 6",2.1 ± 1.9
same,number of cells per clone,"Mdm2^Lox/Lox MEFs; MdmX-GFP virus, 5.0 μM racemic nutlin-3, Day 2",1.2 ± 0.4
same,number of cells per clone,"Mdm2^Lox/Lox MEFs; MdmX-GFP virus, 5.0 μM racemic nutlin-3, Day 3",1.1 ± 0.1
same,number of cells per clone,"Mdm2^Lox/Lox MEFs; MdmX-GFP virus, 5.0 μM racemic nutlin-3, Day 4",1.3 ± 0.2
same,number of cells per clone,"Mdm2^Lox/Lox MEFs; MdmX-GFP virus, 5.0 μM racemic nutlin-3, Day 5",1.0 ± 0^
same,"MDM2, p53 and p21 levels","MDM2, p53 and p21 levels",induced
same,sensitivity of MEFs to nutlin-3,[1]; MdmX^+/− MEFs after Cre,sensitive
same,sensitivity of MEFs to nutlin-3,[1]; MdmX^−/− MEFs after Cre,insensitive
same,viability,[2],no decrease in viability at any concentration tested
same,proliferation of control-infected cells,Weril and Y79 cells,inhibited the proliferation
same,CC50,Y79 cells,2 µM
"O=C(O)COc1ccc(C(=O)C=Cc2ccc(Cl)c(Cl)c2)cc1 [Trial B-1, {4-[3-(3,4-dichloro-phenyl)-acryloyl]-phenoxy}-acetic acid]",affinity / inhibition of p53/HDM2 complex,HDM2,high micromolar affinity
COc1ccc(C2=N[C@@H](c3ccc(Cl)cc3)[C@@H](c3ccc(Cl)cc3)N2C(=O)N2CCNC(=O)C2)c(OC(C)C)c1 [nutlin-3a],penetration into the vitreous,[3]; oral and intravenous formulations,poor penetration into the vitreous
MPRFMDYWEGLN [SEQ ID NO:2],affinity / inhibition of p53/HDM2 complex,HDM2,sub-micromolar affinity
same,fold increase in potency compared to wild-type p53-derived peptide (SEQ ID NO:3),HDM2,28 fold
NH2-Gly-Ser-Gly-Ser-Ser-Gln-Glu-Thr-Ala-Ser-Asp-Leu-Ala-Lys-Leu-Ala-Pro-Glu-Asn-OH (H-GSGSSQETASDLAKLAPEN-OH) [p53 mutant],MDMX binding,[4],no MDM2 or MDMX binding
same,MDM2 binding,[5],no MDM2 or MDMX binding
"CC[C@@]1(O)C(=O)OCc2c1cc1n(c2=O)Cc2cc3c(CN(C)C)c(O)ccc3nc2-1 [topotecan, Topotecan]",p53 response,retinoblastoma cells,induced a p53 response
same,intraocular penetration,"[3]; systemic administration, murine models of retinoblastoma",good intraocular penetration
